PubChem BioAssay AID330 (DTP/NCI, 2004)
Where “and” joins values, the source holds several entries; their conditions need not be identical. Equal entries are not always repeated. Inconclusive results and toxic doses are left out. The calls were made as follows: active = survival T/C of 150% or more; inactive = T/C below 125% in these data.

System: P388 leukemia ip, CD2F1 mice, survival T/C
Experiment: NCI In Vivo Anticancer Drug Screen. Data for tumor model P388 Leukemia (intraperitoneal) in CD2F1 (CDF1) mice
Conditions: endpoint: median survival time, higher = longer survival
Method in brief: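 Mice carrying the transplanted tumor received test compound or vehicle. Survival was recorded in each group, and the value is the treated-group measurement divided by that of the vehicle-treated control group.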

[1] = dose: 6.25 mg/kg/injection, schedule: Q01DX009 (ip), vehicle: saline
[2] = dose: 12.5 mg/kg/injection, schedule: Q01DX009 (ip), vehicle: saline
[3] = dose: 50.0 mg/kg/injection, schedule: Q01DX005 (ip), vehicle: Klucel (hydroxypropylcellulose) (HPC)
[4] = dose: 100.0 mg/kg/injection, schedule: Q01DX005 (ip), vehicle: Klucel (hydroxypropylcellulose) (HPC)
[5] = dose: 200.0 mg/kg/injection, schedule: Q01DX005 (ip), vehicle: Klucel (hydroxypropylcellulose) (HPC)
[6] = dose: 50.0 mg/kg/injection, schedule: Q01DX009 (ip), vehicle: saline with Tween-80
[7] = dose: 50.0 mg/kg/injection, schedule: Q01DX009 (ip), vehicle: Klucel (hydroxypropylcellulose) (HPC)
[8] = dose: 60.0 mg/kg/injection, schedule: Q01DX005 (ip), vehicle: saline with Tween-80
[9] = dose: 120.0 mg/kg/injection, schedule: Q01DX005 (ip), vehicle: saline with Tween-80
[10] = dose: 240.0 mg/kg/injection, schedule: Q01DX005 (ip), vehicle: saline with Tween-80

Measured: T/C

Cc1ccc(N=Nc2c(C)nn(C(=S)S)c2C)cc1
inactive: dose: 100.0 mg/kg/injection, schedule: Q04DX002 (ip), vehicle: Klucel (hydroxypropylcellulose) (HPC) 100 % of control | dose: 200.0 mg/kg/injection, schedule: Q04DX002 (ip), vehicle: Klucel (hydroxypropylcellulose) (HPC) 105 % of control

COC(OC)C(C)(C)NC(C)(C)C
inactive: dose: 50.0 mg/kg/injection, schedule: Q01DX009 (ip), vehicle: saline 104 % of control | dose: 100.0 mg/kg/injection, schedule: Q01DX009 (ip), vehicle: saline 100 % of control

CC(C)(C)N1CC1C#N (configuration not stated)
inactive: dose: 3.13 mg/kg/injection, schedule: Q01DX009 (ip), vehicle: saline 111 % of control | [1] 104 % of control | [2] 101 % of control

CN1CCc2c1cc(-c1ccco1)c1c2N(C)CC1
inactive: [3] 104 % of control | [4] 111 % of control | [5] 107 % of control

Cc1c(N=Nc2ccc(Br)cc2)c(-c2ccccc2)nn1C(=S)S
inactive: [3] 105 % of control | [4] 105 % of control | [5] 90 % of control

CO/C=C(/C#N)S(=O)(=O)/C(C#N)=C/OC
inactive: dose: 50.0 mg/kg/injection, schedule: Q01DX005 (ip), vehicle: saline with Tween-80 100 % of control | dose: 100.0 mg/kg/injection, schedule: Q01DX005 (ip), vehicle: saline with Tween-80 112 % of control | dose: 200.0 mg/kg/injection, schedule: Q01DX005 (ip), vehicle: saline with Tween-80 104 % of control

O=C(Nc1ccccc1)OCC[N+](CCO)(CCO)CCO
inactive: dose: 60.0 mg/kg/injection, schedule: Q01DX005 (ip), vehicle: water 100 % of control | dose: 120.0 mg/kg/injection, schedule: Q01DX005 (ip), vehicle: water 100 % of control | dose: 240.0 mg/kg/injection, schedule: Q01DX005 (ip), vehicle: water 99 % of control

CCCCNC(=O)C1C2C=CC(O2)C1C(=O)O (configuration not stated)
inactive: [3] 100 % of control | [4] 93 % of control | [5] 89 % of control

Cn1cnc([N+](=O)[O-])c1Sc1nnc(-c2ccccc2)c(-c2ccccc2)n1
inactive: [3] 88 % of control | [4] 86 % of control | [5] 92 % of control

COc1ccc(C(CC(=O)NCCCl)CC(=O)NCCCl)cc1
inactive: dose: 100.0 mg/kg/injection, schedule: Q01DX001 (ip), vehicle: suspension in saline 101 % of control | dose: 200.0 mg/kg/injection, schedule: Q01DX001 (ip), vehicle: suspension in saline 100 % of control

O=C(CNC(=O)NCc1ccco1)N/N=C/c1ccccc1O
inactive: [6] 89 % of control | dose: 100.0 mg/kg/injection, schedule: Q01DX009 (ip), vehicle: saline with Tween-80 96 % of control

Cc1ccc(S(=O)(=O)N2CCC(O)(c3ccccc3)CC2)cc1
inactive: dose: 100.0 mg/kg/injection, schedule: Q01DX001 (ip), vehicle: Klucel (hydroxypropylcellulose) (HPC) 94 % of control | dose: 200.0 mg/kg/injection, schedule: Q01DX001 (ip), vehicle: Klucel (hydroxypropylcellulose) (HPC) 94 % of control | dose: 400.0 mg/kg/injection, schedule: Q01DX001 (ip), vehicle: Klucel (hydroxypropylcellulose) (HPC) 93 % of control

COc1cccc(CSC(=N)N)c1
inactive: dose: 12.5 mg/kg/injection, schedule: Q01DX009 (ip), vehicle: Klucel (hydroxypropylcellulose) (HPC) 109 % of control | dose: 25.0 mg/kg/injection, schedule: Q01DX009 (ip), vehicle: Klucel (hydroxypropylcellulose) (HPC) 99 % of control | [7] 100 % of control and 110 % of control

COc1cc([C@H]2c3c(cc(OC)c(OC)c3OC)CC3COC(=O)[C@@H]32)cc2c1OCO2 (some centres not stated)
inactive: [8] 98 % of control | [9] 92 % of control | [10] 90 % of control

COc1ccc(CCN2C(=O)CCC3=C2CCCC3=O)cc1OC
inactive: dose: 25.0 mg/kg/injection, schedule: Q01DX005 (ip), vehicle: Klucel (hydroxypropylcellulose) (HPC) 102 % of control | [3] 100 % of control | [4] 102 % of control | [5] 100 % of control

COc1cc(C(=O)CC(=O)Cc2ccc3ccccc3n2)cc(OC)c1OC
inactive: dose: 0.93 mg/kg/injection, schedule: Q01DX005 (ip), vehicle: saline with Tween-80 102 % of control | dose: 1.88 mg/kg/injection, schedule: Q01DX005 (ip), vehicle: saline with Tween-80 103 % of control | dose: 3.75 mg/kg/injection, schedule: Q01DX005 (ip), vehicle: saline with Tween-80 98 % of control | [9] 90 % of control | [10] 97 % of control

Nc1cc(C(=O)O)cc(Cl)n1
inactive: dose: 3.12 mg/kg/injection, schedule: Q01DX009 (ip), vehicle: saline 108 % of control | [1] 101 % of control | [2] 107 % of control | dose: 25.0 mg/kg/injection, schedule: Q01DX009 (ip), vehicle: saline 111 % of control

c1ccc(OP(Oc2ccccc2)(c2ccccc2)(c2ccccc2)c2ccccc2)cc1
inactive: [7] 97 % of control | dose: 100.0 mg/kg/injection, schedule: Q01DX009 (ip), vehicle: Klucel (hydroxypropylcellulose) (HPC) 99 % of control | dose: 200.0 mg/kg/injection, schedule: Q01DX009 (ip), vehicle: Klucel (hydroxypropylcellulose) (HPC) 111 % of control

O=[N+]([O-])c1ccc(C2=C[P+](c3ccccc3)(c3ccccc3)C=C(c3ccccc3)O2)cc1
inactive: dose: 1.5 mg/kg/injection, schedule: Q01DX005 (ip), vehicle: saline with Tween-80 115 % of control | dose: 1.5 mg/kg/injection, schedule: Q01DX005 (ip), vehicle: saline 117 % of control | dose: 3.0 mg/kg/injection, schedule: Q01DX005 (ip), vehicle: saline with Tween-80 113 % of control | dose: 3.0 mg/kg/injection, schedule: Q01DX005 (ip), vehicle: saline 124 % of control

CC(=O)N(OS(C)(=O)=O)C1CCCCC1
inactive: dose: 50.0 mg/kg/injection, schedule: Q01DX007 (ip), vehicle: saline with Tween-80 92 % of control | dose: 100.0 mg/kg/injection, schedule: Q01DX007 (ip), vehicle: saline with Tween-80 100 % of control | dose: 200.0 mg/kg/injection, schedule: Q01DX007 (ip), vehicle: saline with Tween-80 90 % of control

COCC(CC(=O)O)C(C(=O)O)C(=O)O (configuration not stated)
inactive: dose: 12.5 mg/kg/injection, schedule: Q01DX009 (ip), vehicle: water 100 % of control | dose: 25.0 mg/kg/injection, schedule: Q01DX009 (ip), vehicle: water 106 % of control | dose: 50.0 mg/kg/injection, schedule: Q01DX009 (ip), vehicle: water 106 % of control | dose: 100.0 mg/kg/injection, schedule: Q01DX009 (ip), vehicle: water 93 % of control | dose: 200.0 mg/kg/injection, schedule: Q01DX009 (ip), vehicle: water 92 % of control

CCNCc1c(C)nc2ccc(N(C)C)cc2c1Cl
inactive: dose: 12.5 mg/kg/injection, schedule: Q01DX009 (ip), vehicle: saline with Tween-80 91 % of control | dose: 25.0 mg/kg/injection, schedule: Q01DX009 (ip), vehicle: saline with Tween-80 104 % of control | [6] 88 % of control

CSCCC(NC(=O)c1cnc2ccccc2c1)C(N)=O (configuration not stated)
inactive: [8] 103 % of control | [9] 97 % of control | [10] 87 % of control
